# Measured values as given in patent US20180105492A1, “COMPOUNDS DERIVED FROM 3-ALKYLAMINE-1H-INDOLYL ACRYLATE AND THEIR USE IN THE TREATMENT OF NEURODEGENERATIVE DISEASES” (FUNDACION PARA LA INVESTIGACION BIOMEDICA DEL HOSPITAL …, priority 2014, published 2018).
# Experiments:
# Assay type in all cases: cell-based
# HepG2 cells = assay: Hepatotoxicity in HepG2 cell line, reduction of cell viability (MTT); settings: human, 24 h
# Procedure: (§1) In order to assess cellular viability, we measured the metabolic reduction of 3-(4,5-Dimethylthiazol-2-yl)-2,5 diphenyltetrazolium bromide (MTT). MTT is an indirect assay to measure cellular viability. It is a colorimetric method based on the reduction of 3-(4,5-Dimethylthiazol-2-yl)-2,5 diphenyltetrazolium. This process is performed by the mitochondrial enzyme succinate-dehydrogenase present in metabolic active cells. Thus, the water-soluble yellow MTT (tetrazolium salt) is transformed into a insoluble purple compound (formazan). Quantity of living cells is directly proportional to the quantity of formazan (Mosmann, 1983, J Immunol Methods, 65: 55-63). […] Therefore, with this assay we can measure cellular surviving and proliferation and also, we can determine the cytotoxicity of potential neuroprotective compounds. In order to assess cellular viability in SH-SY5Y cell line, we added 30 μl/well of MTT (5 mg/mL) and after 2 h, medium was carefully removed to avoid losing the formazan and was diluted in 300 μL of DMSO. Afterwards, samples were transferred to a 96 well-plate and the absorbance was measured at 570 nm using a absorbance/fluorescence reader FluoStar optima®. Every MTT assay was performed in triplicates. Absorbance values obtained with the toxic alone were subtracted to the absorbance values obtained in basal conditions (without treatment). That result was considered as the 100% of cell death and the values obtained with the compounds in the presence of the toxic stimulus were normalized as percentages of that value. For determining the surviving percentage, those percentages of cell death were subtracted to 100.
# In general, compounds capable of inducing the transcription factor Nrf2 may have a hepatotoxic effect, due to the electrophilic character that generally characterizes them. The derivatives objects of this invention were designed to avoid this toxicity and to improve its safety profile. The liver plays an essential role in the metabolism of endogenous and exogenous compounds. Hepatocytes capture these compounds and after metabolizing them, they are eliminated by different mechanisms. Metabolized compounds usually have less pharmacological activity and less toxicity than the corresponding active principles. However, in certain cases, the active principles or their metabolites may be toxic to the hepatocytes. Hepatic toxicity is one of the leading causes of drug withdrawal from preclinical studies. […] In addition, these cells have been defined by the European Medicines Agency (EMA) as a model of hepatoxicity by measuring the induction of apoptosis and/or cell survival. Therefore, the safety profile of the compounds object of the present invention was evaluated in the HepG2 hepatic cancer cell line. HepG2 cells were cultured in T75 flask using EMEM as culture medium supplemented with non-essential amino acids, 10% fetal bovine serum, 50 units/mL penicillin and 50 μg/mL streptomycin (reagents from GIBCO, Madrid, Spain). Cultures were maintained in an incubator with an O2/CO2 gas mixture (95/5%) at 37° C. with a humid atmosphere and two passes per week were made when they reached 90% of confluence. All experiments were performed on cells that were between passages 5 and 15. For the experiments, the cells were plated in 96-well plates at a density of 4×10 ^4 cells/well in 200 μl of culture medium. After 24 h in culture, the medium was removed and replaced with 100 μL of the corresponding solution of the compounds of the invention in culture medium at the selected concentrations (1, 10, 30 and 100 μM). The compounds were studied in triplicate, including in each experiment 3 wells without treatment, which was considered as 100% of viability (baseline conditions). After 24 h of incubation with the treatments, cell viability was assessed by the MTT reduction method. […]
# SH-SY5Y cells [1] = assay: Neuroprotection against oxidative stress induced by menadione, pre- and co-incubation, MTT; settings: Homo sapiens, 24 h, compound 1 μM pre- and co-incubation, Menadione (8 mM)
# Procedure: (§2) SH-SY5Y cells [ECACC 94030304], in 5 to 16 passage after defreezing were maintained in Eagle media modified by Dulbecco (DMEM) containing 15 non-essential amino acids and supplemented with 10% fetal bovine serum, 1 mM glutamine, 50 units/mL penicillin/streptomycin (obtained from GIBCO, Madrid, Spain). Cells were seeded in flasks containing supplemented media and were maintained in an incubator at 37° C. and 5% CO2. 1:4 passes were performed twice per week. For the experiments, cells were seeded in 24 well-plates at a density of 2×10^5 cells/well, or in 96 well-plates at a density of 8×10^4 cells/well. For cytotoxicity experiments, cells were treated with the compounds before confluence with DMEM media supplemented with fetal bovine serum 1%.
# as §1
# (§3) Neuroprotection elicited by the compounds of the invention 1-16: The activation of Nrf2-ARE pathway by different compounds exerts neuroprotective effects against toxic models based on oxidative stress via the expression of cytoprotective genes. […] We evaluated the neuroprotective potential of the compounds using the human neuroblastoma cell line using the following cytotoxicity models: 1) oxidative stress induced by rotenone+oligomycin, both blockers of the electron transport chain as previously described (Halliwell, 1992, J Neurochem, 59: 1609-23, Newhouse y col., 2004, Toxicol Sci, 79: 137-46), and 2) cytotoxicity induced by the electrophilic compound Menadione. This compound produces oxidative stress after being metabolized by microsomal enzymes in the cell which produces hydroxyl radical and oxygen reactive species. As a consequence, there is a depolarization of mitochondrial membrane generating a release of apoptotic factors such as cytochrome c, and activating the caspase cascade (Loor y col., 2010, Free Radic Biol Med, 49: 1925-36, Chuang y col., 2002, Cancer Res, 62: 6246-54). Caspase 3 activation can produce the lysis of proteins and induce DNA fragmentation, leading to cell death (Gerasimenko y col., 2002, J Cell Sci, 115: 485-97).
# To further confirm the neuroprotective capacity in another model of oxidative stress, menadione was selected as toxic stimulus. […]
# SH-SY5Y cells [2] = assay: Neuroprotection against rotenone/oligomycin A, pre- and co-incubation model, MTT; settings: Homo sapiens, compound 1 μM pre-incubation 24 h and co-incubation 24 h with Rot/Olig (30/10 μM)
# Procedure: as §2, §1, §3
# In this model, a 24 h pre-incubation period was performed in presence of the compounds synthesized at a concentration of 1 μM. Thereafter, a 24 h co-incubation period was added, in presence of the compounds with rotenone/oligomycin A (30 μM/10 μM) mixture. After 24 h, cell viability was assessed by the MTT reduction method. […]
smiles,measurement,setting,value
"COc1ccc2[nH]cc(CCNC(C)=O)c2c1 [Melatonin, reference compound]",HepG2 LD50,HepG2 cells,>100 µM
same,% protection against menadione toxicity at 1 µM,SH-SY5Y cells [1],37.4%
same,viability at 1 µM,SH-SY5Y cells [1]; read-out: % Survival,72.9 ± 5.24%
same,inhibition at 1 µM,SH-SY5Y cells [2]; read-out: % Protection,31.1%
same,viability at 1 µM,SH-SY5Y cells [2]; read-out: % Survival,68.3 ± 4.27%
